The values below come from patent US10301352B2, “Peptidomimetics with antiangiogenic activity” (UNIWERSYTET WARSZAWSKI, priority 2013, dated 2019).

In one data set the target is T1, NRP-1 (Rattus norvegicus, UniProt Q9QWJ9).
T1 construct: purchased R&D Systems
Put plainly: VEGF165 displacement assay (inhibition of VEGF165 to NRP-1 binding). Conditions: biotinylated VEGF165 1 nM; for inhibition at 0.03 µM: compound 0.03 μM; for inhibition at 0.1 µM: compound 0.1 μM; for inhibition at 0.3 µM: compound 0.3 μM; for inhibition at 1 µM: compound 1 μM. How it is done: Antiangiogenic properties were evaluated in vitro by measuring the inhibition of VEGF165 to NRP-1 binding. This test makes it possible to evaluate the % inhibition by the evaluated compound at a particular concentration.
The evaluation of the inhibitory effect of peptidomimetics were performed using an enzymatic method denoting the spectrophotometric displacement of the VEGF165 ligand from a bond with the specific receptor Neuropilin-1 by the evaluated compound. The studies were performed using polystyrene 96-well plates (Maxisorb, Nunc.).
To evaluate the biological inhibitory activity of selected molecules, the surfaces of flat bottom polystyrene wells of 96-wells plates (Maxisorb, Nunc,) was treated with 100 ul of 2 ug/ml anti-Fc IgG (Sigma-Aldrich, Saint Quentin Fallavier, France) in phosphate buffer saline (PBS, Sigma) overnight at 4° C. After washing and saturation of non-specific interactions with bovine serum albumin (BSA, Sigma), purified recombinant rat NRP1-Fc (20 ng/well, R&D Systems, Abingdon, UK) in 50 μl PBS-BSA 0.1%-tween-80 0.005% (PBT), […] VEGF165 (final concentration 1 nM, R&D Systems) diluted in PBT containing 2 μg/ml of heparin (Sigma) were successively added to a final volume of 150 μl. After an overnight incubation at 4° C., the wells were washed with PBT and treated with streptavidin-HRP polymer (Sigma) followed by washing and addition of ABTS substrate (Sigma). The DO measures were performed at 415 nm in reference to 470 nm after 15 minutes-2 h of reaction. […] In the control wells, the tested compound was absent but the respective concentration of DMSO was maintained. The heptapeptide A7R (ATWLPPR) was routinely used as a positive control for each plate.

Data set [1] in a line: In vitro peptidomimetic stability in human plasma (LC/MS). It counts as in vitro ADME. Conditions: 37° C.; for half-life at 0.35 μmol/mL: human plasma from healthy donors, TFA salt, read-out: half-life time; for main enzymatic cleavage / degradation products: human plasma. Here is the method:
The stability of two peptidomimetics: Lys(hArg)-Dap-Pro-Arg and Lys(hArg-Pro-Dab-Arg were tested in plasma samples obtained from healthy donors. Peptidomimetics stock solutions were prepared by dissolving the TFA salt of proper peptidomimetic in water to obtain a final peptidomimetic concentration of 0.7 μmol/mL. In a Eppendorf tube, samples of 100 μL of human plasma were temperature-equilibrated at 37° C. for 15 minutes before adding 100 μL of peptidomimetic stock solution. Three tubes allowed the analysis for each time point. The initial time was recorded and at known time intervals (every 10 minutes from 0 sec to 3 h), 400 μL of solution of TCA in 99.8% ethanol (CTCA=0.2%) was added to the reaction solution for precipitation of the serum proteins. The cloudy reaction sample was shaken and then spun at 2000 g to pellet the precipitated serum proteins. The reaction supernatant was then analyzed by LC/MS analysis (using a RP-HPLC-ESI-MS system).

Non-standard residues stand in square brackets, D forms with d. Residues, ends and D or L forms follow the SMILES beside them. No end group written: not given here. ξ: configuration not given here. hArg = N=C(N)NCCCC[C@H](N)C(=O)O; Dab = NCC[C@H](N)C(=O)O; Dap = NC[C@H](N)C(=O)O; ξP = O=C(O)C1CCCN1

T1 sequence (Q9QWJ9 with tags, fused parts or gaps limits assumed): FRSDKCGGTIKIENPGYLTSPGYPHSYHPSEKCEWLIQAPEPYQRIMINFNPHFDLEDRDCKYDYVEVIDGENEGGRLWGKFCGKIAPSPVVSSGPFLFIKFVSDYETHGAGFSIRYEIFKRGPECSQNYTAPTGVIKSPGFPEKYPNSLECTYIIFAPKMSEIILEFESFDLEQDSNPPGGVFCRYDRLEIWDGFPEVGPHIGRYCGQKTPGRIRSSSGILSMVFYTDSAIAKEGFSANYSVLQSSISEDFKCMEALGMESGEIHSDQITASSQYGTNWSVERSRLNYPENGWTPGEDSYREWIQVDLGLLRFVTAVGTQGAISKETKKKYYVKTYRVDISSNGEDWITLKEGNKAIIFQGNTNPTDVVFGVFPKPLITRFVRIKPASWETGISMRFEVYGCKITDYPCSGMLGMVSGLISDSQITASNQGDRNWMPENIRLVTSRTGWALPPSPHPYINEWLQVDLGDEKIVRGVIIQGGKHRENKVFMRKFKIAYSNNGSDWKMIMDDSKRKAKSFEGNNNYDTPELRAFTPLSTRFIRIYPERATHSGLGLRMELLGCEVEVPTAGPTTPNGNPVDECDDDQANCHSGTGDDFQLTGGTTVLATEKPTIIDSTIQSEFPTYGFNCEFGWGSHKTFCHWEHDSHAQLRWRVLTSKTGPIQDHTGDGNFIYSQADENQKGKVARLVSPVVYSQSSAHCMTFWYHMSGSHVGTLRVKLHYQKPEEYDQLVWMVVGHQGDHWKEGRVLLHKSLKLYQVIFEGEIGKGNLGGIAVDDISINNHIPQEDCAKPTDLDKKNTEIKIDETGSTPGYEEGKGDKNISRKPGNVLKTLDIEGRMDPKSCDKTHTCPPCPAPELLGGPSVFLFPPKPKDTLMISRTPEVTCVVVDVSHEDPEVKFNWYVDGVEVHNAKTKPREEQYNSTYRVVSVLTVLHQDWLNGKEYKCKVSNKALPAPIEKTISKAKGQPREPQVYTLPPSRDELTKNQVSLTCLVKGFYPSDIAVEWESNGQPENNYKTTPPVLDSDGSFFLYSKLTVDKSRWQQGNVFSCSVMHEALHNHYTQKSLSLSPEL

For `N=C(N)NCCCC[C@H](N)C(=O)NCCCC[C@H](N)C(=O)N1CCCC1C(=O)N[C@@H](CCN)C(=O)N[C@@H](CCCNC(=N)N)C(=O)O` (stereo partly drawn) [compound 2, Lys(hArg)-Pro-Dab-Arg] (H-K(hArg)[ξP][Dab]R-OH), at NRP-1, 0.03 µM produced 13.7% inhibition; 0.1 µM produced 35.4% inhibition; the inhibition (as a rule, the relative decrease from the control value, in per cent) at 0.3 µM worked out at 62.2%; the inhibition at 1 µM was 82.6%. The compound further showed an inhibition at 3 µM at NRP-1 (compound 3 μM) of 93.6%. Besides, the inhibition at 10 µM on NRP-1 (compound 10 μM) is 98.3%. The inhibition at 30 µM on NRP-1 (compound 30 μM) was found to be 100%. Further, in data set [1], the half-life – broadly, the time in which the quantity being followed falls by half – at 0.35 μmol/mL stood at 0.667 h; the “main enzymatic cleavage / degradation products” value is “to Lys(hArg)-Pro and Dab-Arg”.
At NRP-1, `N=C(N)NCCCC[C@H](N)C(=O)NCCCC[C@H](N)C(=O)N[C@@H](CN)C(=O)N1CCC[C@H]1C(=O)N[C@@H](CCCNC(=N)N)C(=O)O` [compound 3, Lys(hArg)-Dap-Pro-Arg] (H-K(hArg)[Dap]PR-OH) yielded an inhibition at 0.03 µM of 11.6%, an inhibition at 0.1 µM of 33%, an inhibition at 0.3 µM of 59.4% and an inhibition at 1 µM of 82%. Besides, the inhibition at 3 µM on NRP-1 (compound 3 μM) is 93.4%. Moreover, at NRP-1 (compound 10 μM), at 10 µM the inhibition was 96.8%. The compound also returned an inhibition at 30 µM at NRP-1 (compound 30 μM) of 99.7%. Moreover, in data set [1], the half-life at 0.35 μmol/mL was about 2.33 h; the “main enzymatic cleavage / degradation products” value was “between the first and second residue”.
As for `N=C(N)NCCCC[C@H](N)C(=O)NCCCC[C@H](N)C(=O)N[C@@H](CCN)C(=O)N1CCC[C@H]1C(=O)N[C@@H](CCCNC(=N)N)C(=O)O` [compound 4, Lys(hArg)-Dab-Pro-Arg] (H-K(hArg)[Dab]PR-OH), on NRP-1, at 0.1 µM the inhibition was 21.6%, at 0.3 µM the inhibition was 47.8% and testing at 1 µM gave an inhibition of 82.4%. Moreover, at NRP-1 (compound 3 μM), the inhibition at 3 µM was 91.4%. 10 µM produced 98.5% inhibition at NRP-1 (compound 10 μM). Moreover, the inhibition at 30 µM on NRP-1 (compound 30 μM) was found to be 100%.
ATWLPPR [A7R, reference compound]: the figures for the “% inhibition of VEGF165 to NRP-1 binding” value on NRP-1 (compound 3 μM), on NRP-1 (compound 10 μM) and at NRP-1 (compound 30 μM) were 61.2%, 76.9% and 85.5%, respectively.
